Laboratory results: US4207418A, “1,2-Ethanediamine salts of nalidixic acid” (Sterling Drug Inc., priority 1978, dated 1980)
Values after ≈ are worked out from the molar mass of the structure shown. Counter-ions that a name gives are not always drawn. Like-named read-outs stand apart in the source and are kept apart here.

Experiments:
Candida albicans 10231 = assay: In vitro tube dilution test (MIC), Candida albicans 10231; assay type: cell-based
Procedure: (§1) Nalidixic acid, the parent acid, and its 1,2-ethanediamine (1:1) salt were tested in vitro against ten screening organisms and they were also tested against the standard E. coli (Vogel) systemic infection in mice, the latter in vivo study being carried out using three different routes of administration: oral, subcutaneous and intravenous. The materials and methods used in the comparative antibacterial tests are given in the following paragraphs.
(§2) The parent nalidixic acid was solublized by adding 1.0 ml. of 1 N NaOH to the crystalline acid and water was added to a concentration of 1000 mcg./ml. for the in vitro study or saline to a concentration of 2.5 or 5.0 mg./ml. for the in vivo study. A stock solution of nalidixic acid 1,2-ethanediamine (1:1) salt was prepared from the 1:2 salt according to Example 5 above (refer to Solution 5B); in saline this solution has a concentration equivalent of the nalidixic acid of 47.6 mg./ml. for in vivo studies. A concentration equivalent of the acid of 1000 mcg./ml. for the in vitro studies was obtained by dilution of the stock solution. […]
(§3) The compounds were tested for antimicrobial activity by a single-row tube dilution method. […] Minimal inhibitory concentrations (lowest drug concentrations showing no visible growth, designated MIC) were read after eighteen-twenty hours incubation at 37° C. The molds were read after five days incubation at 25° C.

[1] = tested on: Pseudomonas aeruginosa MGH-2; assay: In vitro tube dilution test (MIC), Pseudomonas aeruginosa MGH-2; assay type: cell-based; settings: 18-20 hours at 37° C.
Procedure: as §1, §2, §3

Proteus mirabilis MGH-1 = assay: In vitro tube dilution test (MIC), Proteus mirabilis MGH-1; assay type: cell-based
Procedure: as §1, §2, §3

ten screening organisms = assay: In vitro antibacterial tests against ten screening organisms (overall); assay type: cell-based; settings: in words
Procedure: as §1, §2, §3

[2] = tested on: Streptococcus pyogenes C203; assay: In vitro tube dilution test (MIC), Streptococcus pyogenes C203; assay type: cell-based; settings: 18-20 hours at 37° C.
Procedure: as §1, §2, §3

Escherichia coli (Vogel) [3] = assay: Mouse protection test, systemic Escherichia coli (Vogel) infection in mice; assay type: in vivo, Swiss Webster, female; settings: for ED50 (the dose protecting 50% of the mice) / ED50: dosed 30 minutes after infection, 7 days; for ED50 (the dose protecting 50% of the mice): 10080 min; for ED50: Escherichia coli, 168 h, read-out: ED50 (the dose protecting 50% of the mice)
Procedure: as §1
The parent nalidixic acid was solublized by adding 1.0 ml. of 1 N NaOH to the crystalline acid and water was added to a concentration of 1000 mcg./ml. for the in vitro study or saline to a concentration of 2.5 or 5.0 mg./ml. for the in vivo study. A stock solution of nalidixic acid 1,2-ethanediamine (1:1) salt was prepared from the 1:2 salt according to Example 5 above (refer to Solution 5B); in saline this solution has a concentration equivalent of the nalidixic acid of 47.6 mg./ml. for in vivo studies. A concentration equivalent of the acid of 1000 mcg./ml. for the in vitro studies was obtained by dilution of the stock solution.
Culture for In Vivo Study Escherichia coii (Vogel)
Mice White, Swiss Webster, female, […].
The E. coli culture was grown in Brain Heart Infusion broth at 37° C. for sixteen hours after which 0.1 ml. was removed and inoculated into 10 ml. of Brain Heart Infusion broth and incubated for five hours. […] All mice to be infected were inoculated intraperitoneally with 0.5 ml. of the inoculum.
After inoculation of the organism, the mice were divided into groups of ten. Medication was given to one group of mice at each dose level of each of the […] drugs by each of the three routes of administration. Two groups (twenty mice) were used as infection controls. The drugs were administered thirty minutes after the mice were infected. The dose of drug for i.v. injection was contained in 0.2 ml. Those for oral or subcutaneous administration were contained in 0.5 ml. The mice were examined and deaths were recorded for seven days after inoculation. The ED50 's (the dose protecting 50% of the mice) were calculated using a modified Reed and Muench method.

[4] = tested on: Klebsiella pneumoniae 39645; assay: In vitro tube dilution test (MIC), Klebsiella pneumoniae 39645; assay type: cell-based; settings: 18-20 hours at 37° C.
Procedure: as §1, §2, §3

Proteus vulgaris 9920 = assay: In vitro tube dilution test (MIC), Proteus vulgaris 9920; assay type: cell-based; settings: 18-20 hours at 37° C.
Procedure: as §1, §2, §3

[5] = tested on: Staphylococcus aureus (Smith); assay: In vitro tube dilution test (MIC), Staphylococcus aureus (Smith); assay type: cell-based; settings: 18-20 hours at 37° C.
Procedure: as §1, §2, §3

Aspergillus niger 16404 = assay: In vitro tube dilution test (MIC), Aspergillus niger 16404; assay type: cell-based; settings: 120 h, molds read after five days at 25° C., read-out: Minimal Inhibitory Concentration
Procedure: as §1, §2, §3

Escherichia coli (Vogel) [6] = assay: In vitro tube dilution test (MIC), Escherichia coli (Vogel); assay type: cell-based; settings: 18-20 hours at 37° C., read-out: Minimal Inhibitory Concentration
Procedure: as §1, §2, §3

[7] = tested on: Trichophyton mentagrophytes 9129; assay: In vitro tube dilution test (MIC), Trichophyton mentagrophytes 9129; assay type: cell-based; settings: 120 h, molds read after five days at 25° C., read-out: Minimal Inhibitory Concentration
Procedure: as §1, §2, §3

[8] = read-out: Minimal Inhibitory Concentration

SMILES: CCn1cc(C(=O)O)c(=O)c2ccc(C)nc21 [1,2-ED Salt, 1,2-ethanediamine (1:1) salt of nalidixic acid]
- Minimal Inhibitory Concentration (Candida albicans 10231): 500 µg/mL
- Minimal Inhibitory Concentration ([1]; Pseudomonas aeruginosa MGH-2): 62.5 µg/mL
- Minimal Inhibitory Concentration (Proteus mirabilis MGH-1; 18-20 hours at 37° C.): 15.6 µg/mL
- antibacterial activity in standard in vitro tests vs. parent nalidixic acid (ten screening organisms): as active antibacterially as the corresponding parent nalidixic acid
- in vitro MIC's compared with MIC's of nalidixic acid (ten screening organisms; nine of the ten microorganisms): identical to the MIC's of nalidixic acid against nine of the ten microorganisms examined
- Minimal Inhibitory Concentration [2]: 250 µg/mL
- ED50 (the dose protecting 50% of the mice) (Escherichia coli (Vogel) [3]; Oral): 18.9 mg./kg./dose
- ED50 (the dose protecting 50% of the mice) (Escherichia coli (Vogel) [3]; Subcutaneous): 17.6 mg./kg./dose
- ED50 's compared with nalidixic acid in the mouse protection test (Escherichia coli (Vogel) [3]; in words): no significant differences
- antibacterial activity against in vivo bacterial infections in mice vs. parent nalidixic acid (Escherichia coli (Vogel) [3]; in words): as active antibacterially as the corresponding parent nalidixic acid
- Minimal Inhibitory Concentration [4]: 31.3 µg/mL
- Minimal Inhibitory Concentration (Proteus vulgaris 9920): 1.0 µg/mL
- Minimal Inhibitory Concentration [5]: 31.3 µg/mL

SMILES: CCn1cc(C(=O)O)c(=O)c2ccc(C)nc21 [nalidixic acid, 1-ethyl-1,4-dihydro-7-methyl-4-oxo-1,8-naphthyridine-3-carboxylic acid]
- MIC (Candida albicans 10231; [8]): 500 µg/mL (≈ 2150 µM)
- MIC ([1]; Pseudomonas aeruginosa, MGH2, Pseudomonas aeruginosa MGH-2, read-out: Minimal Inhibitory Concentration): 125 µg/mL (≈ 538 µM)
- MIC (Aspergillus niger 16404): 500 µg/mL (≈ 2150 µM)
- MIC (Proteus mirabilis MGH-1; MGH1, 18-20 hours at 37° C., read-out: Minimal Inhibitory Concentration): 15.6 µg/mL (≈ 67.2 µM)
- MIC [2, 8]: 250 µg/mL (≈ 1080 µM)
- MIC (Escherichia coli (Vogel) [6]): 3.9 µg/mL (≈ 16.8 µM)
- ED50 (Escherichia coli (Vogel) [3]; iv, Intravenous): 17.6 mg/kg
- ED50 (Escherichia coli (Vogel) [3]; po, Oral): 16.5 mg/kg
- ED50 (Escherichia coli (Vogel) [3]; sc, Subcutaneous): 14 mg/kg
- MIC [7]: 500 µg/mL (≈ 2150 µM)
- MIC [4, 8]: 31.3 µg/mL (≈ 135 µM)
- MIC (Proteus vulgaris 9920; [8]): 1 µg/mL (≈ 4.31 µM)
- MIC [5, 8]: 31.3 µg/mL (≈ 135 µM)
